Results taken from patent US20120015953A1, “METHODS AND COMPOSITIONS FOR THE TREATMENT OF ALLERGY” (priority 2010, published 2012).

Columns and labels:
[1] = test system: tissue eosinophil peroxidase (EPO); experiment: late phase allergic response, conjunctival tissue eosinophil peroxidase (EPO) 24 h after challenge; format: in vivo, guinea pig; details: for inhibition of late phase allergic response: compound alone, EPO 24 hours after challenge (FIGS. 2, 5); for inhibition of late phase response with concomitant olopatadine: concomitant dosing with 0.2% olopatadine (FIGS. 2, 5)
Experimental: (§1) H1 and H4 antagonists were evaluated using an in vivo assay to determine the effect of the H4 antagonist on a co-administered H1 antagonist. Male Hartley VAF outbred guinea pigs were passively sensitized to ovalbumin by a single OD subconjunctival injection of undiluted guinea pig anti-ovalbumin antiserum 24 hours before OD topical challenge with 500 μg ovalbumin in saline. Control animals were injected with saline only and challenged with ovalbumin. To determine acute phase drug efficacy, 30 min after challenge animals were clinically scored by a masked observer for severity of signs of conjunctivitis based on a standard scale.
(§2) Test compounds were administered topically 1 hour prior to challenge. Twenty-four hours after challenge, animals were euthanized and conjunctivae were harvested for determination of tissue eosinophil peroxidase (EPO) concentration as a marker of allergic inflammation and late phase effects. Homogenates of freshly collected tissues were prepared by shaking the tissues in 2 mL round-bottom tubes containing 0.5 mL of homogenization buffer (50 mM Tris HCl, pH 8.0, 6 mM KBr) and one 5-mm stainless steel bead on a Qiagen TissueLyser at 30 Hz for 5 min. Homogenates were frozen and thawed once, then centrifuged at 10,000 rpm for 5 min. EPO activity in supernatants was measured by reacting diluted homogenates with a solution of 6 mM o-phenylenediamine substrate and 8.8 mM H2O2 in homogenization buffer for 3 min. The reaction was stopped with 4M H2SO4 and absorbances were measured at […] on a spectrophotometry plate reader. Total EPO in samples was calculated from a standard curve of recombinant human EPO in each assay. EPO activity was normalized to total protein concentration (Pierce BCA assay) in supernatants. Background EPO activity was determined from the unsensitized, antigen-challenged control group. Percent inhibition was calculated from the sensitized, antigen-challenged, vehicle-treated control group in each experiment. Ovalbumin-injected animals dosed topically with 0.1% w/v dexamethasone (dex) served as positive control. Groups were compared by ANOVA with Dunnett's or Tukey's post-hoc tests where appropriate with significance assigned at the 95% confidence level.

[2] = test system: passively sensitized guinea pigs; experiment: acute phase clinical score of conjunctivitis, passively sensitized guinea pigs challenged with ovalbumin; format: in vivo, guinea pig; details: for effect on olopatadine's inhibition of the acute clinical score: H4 antagonist topical once daily, 0.2% olopatadine 5 minutes later, antigen challenge 60 minutes after dose, scored 30 min after challenge (FIGS. 1, 4); for effect on olopatadine's acute phase effects under different dosing regimens: administered before, after, or in the same drop as 0.2% olopatadine (FIGS. 3, 6); for effect on acute phase clinical score on their own: compound alone, topical, 1 hour prior to challenge
Experimental: as §1, §2

CN1CCN(c2nc3ccc(C(F)(F)F)cc3n3cnnc23)CC1 [Compound 1, 4-(4-methylpiperazin-1-yl)-8-(trifluoromethyl)-[1,2,4]triazolo[4,3-a]quinoxaline]
inhibition of late phase allergic response [1]: very good inhibitors of late phase allergic response | inhibition of late phase response with concomitant olopatadine [1]: slight increase in the inhibition of late phase response | effect on olopatadine's inhibition of the acute clinical score [2]: dose dependent effect on the inhibition of the acute clinical score relative to olopatadine alone | effect on olopatadine's acute phase effects under different dosing regimens [2]: reduction of olopatadine's acute phase effects and dose dependency | effect on acute phase clinical score on their own [2]: Neither Compound 1 nor Compound 2 demonstrate any effect on acute phase clinical score on their own

Clc1ccc2nc(N3CCNCC3)c3nnnn3c2c1 [Compound 2, 8-chloro-4-(piperazin-1-yl)tetrazolo[1,5-a]quinoxaline]
inhibition of late phase allergic response [1]: very good inhibitors of late phase allergic response | inhibition of late phase response with concomitant olopatadine [1]: slight increase in the inhibition of late phase response | effect on olopatadine's inhibition of the acute clinical score [2]: does not show suppression of olopatadine's acute phase effects | effect on olopatadine's acute phase effects under different dosing regimens [2]: These effects on acute phase response are not seen | effect on acute phase clinical score on their own [2]: Neither Compound 1 nor Compound 2 demonstrate any effect on acute phase clinical score on their own
